Measured values: patent US12528817B2, “Method of inhibiting kinase by mesylate salts of triazolopyrazine derivatives” (ABION Inc., priority 2022, dated 2026)
Where “and” joins values, the source holds several entries; their conditions need not be identical. Equal values may be shown once. Entries after “also recorded” stand apart in the source; their conditions may differ.

Tests used:
[1] = DVS analysis (hygroscopicity, moisture sorption); type: physicochemical; conditions: for Change in mass at 80% RH / Change of mass in the range 40→95% RH / Water vapor uptake at 95% RH / Change in mass in the range 0→40% RH: 25° C.; for Solid form after DVS analysis: XRPD at end of DVS; for Hygroscopicity classification (European Pharmacopeia): based on change in mass at 80% RH; for Change of mass in the range 40→95% RH / Water vapor uptake at 95% RH: first sorption half-cycle; for Change in mass in the range 0→40% RH: last sorption half-cycle; for Reversibility of water uptake: sorption-desorption-sorption 40-95-0-40% RH
Protocol: Differences in hygroscopicity (moisture uptake) of the various forms of a solid material provided a measure of their relative stability at increasing relative humidity. Moisture sorption isotherms of small samples were obtained using a DVS-1 system from Surface Measurement Systems (London, UK); this instrument is suitable for use with as little as a few milligrams of sample, with an accuracy of 0.1 μg. The relative humidity was varied during sorption-desorption-sorption (40-95-0-40% RH) at a constant temperature of 25° C., typically with a hold time of 60 minutes per step (10% relative humidity step). At the end of the DVS experiment the sample was measured by XRPD.
The hygroscopicity was classified according to the European Pharmacopoeia Hygroscopicity classification.

[2] = Long-term physical stability study, solid form by HT-XRPD; type: physicochemical
Protocol: (§1) HT-XRPD patterns were obtained using the Crystallics T2 high-throughput XRPD set-up. The plates were mounted on a Bruker General Area Detector Diffraction System (GADDS) equipped with a VANTEC-500 gas area detector corrected for intensity and geometric variations. The calibration of the measurement accuracy (peaks position) was performed using NIST SRM1976 standard (Corundum).
(§2) Data collection was carried out at room temperature using monochromatic Cu Kα radiation in the 2θ region between 1.5° and 41.5°, which is the most distinctive part of the XRPD pattern. The diffraction pattern of each well was collected in two 20 ranges (1.5°≤2θ≤21.5° for the first frame, and 19.5°≤2θ≤41.5° for the second) with an exposure time of 90 s for each frame. No background subtraction or curve smoothing was applied to the XRPD patterns. The carrier material used during HT-XRPD analysis was transparent to X-rays and contributed only slightly to the background.

[3] = Long-term chemical stability study, API chemical purity by HPLC/LCMS; type: physicochemical
Protocol: Assay and purity assessment of the novel crystalline salts • Method name: S19061_01.MV • Sample: • Concentration: 0.3 mg/ml • Diluent: Acetonitrile/water (50/50)

[4] = Physical stability under accelerated aging conditions (AAC), HT-XRPD; conditions: for Form after AAC: 40° C./75% RH, 2 days (48 hours), HT-XRPD; for Physical stability after exposure to AAC: 40° C./75% RH for 2 days
Protocol: Upon completion of the aging time, the solids were separated from the liquid phases, dried under vacuum at 50° C. and analyzed by HT-XRPD. […] Subsequently, all the solids were exposed to accelerated aging conditions (AAC) at 40° C./75% RH for 48 hours and re-measured by HT-XRPD to test their physical stability.
as §1, §2

[5] = Long-term stability study, water content by TGA/TGMS; type: physicochemical
Protocol: Mass loss due to solvent or water loss from the crystals was determined by TGA. […] The TGA/DSC 3+ was calibrated for temperature with samples of indium and aluminum. Samples (circa 2 mg) were weighed into 100 μL aluminum crucibles and sealed. The seals were pin-holed, and the crucibles heated in the TGA from 25 to 300° C. at a heating rate of 10° C./min. Dry N2 gas was used for purging.
The gases coming from the TGA samples were analyzed by a mass spectrometer Omnistar GSD 301 T2 (Pfeiffer Vacuum GmbH, Germany). The latter is a quadrupole mass spectrometer, which analyzes masses in the […] of 0-200 amu.

[6] = Thermal stability study in solution (LCMS); type: physicochemical; conditions: for Area %: approx. 0.3 mg/mL
Protocol: A thermal stability study was performed on ABN-401 to investigate the chemical stability of the starting material in solution when exposed to elevated temperatures. Solutions of ABN-401 were prepared in acetone, 1,2-dimethoxyethane, and acetonitrile with a concentration of approximately 0.3 mg/mL. Solutions were left at RT for 1 hour and successively, two aliquots of each solution were taken and heated at 50° C. and 80° C. for one hour. All these solutions were analyzed by LCMS. Additionally, the samples kept at RT were remeasured by LCMS after 24 hours to check the chemical degradation over time.
Starting material characterization and purity assessment of the novel crystalline forms of the free base: • Method name: S19061_03.M • Sample: • Concentration: 0.3 mg/ml • Diluent: Acetonitrile

Row | SMILES | Change in mass at 80% RH [1] | Solid form after DVS analysis [1] | Hygroscopicity classification (European Pharmacopeia) [1] | Change of mass in the range 40→95% RH [1] | Water vapor uptake at 95% RH [1] | Change in mass in the range 0→40% RH [1] | Reversibility of water uptake [1] | Solid form (HT-XRPD) after storage ([2]; 25° C./60% RH, 1 month) | Solid form (HT-XRPD) after storage ([2]; 25° C./60% RH, 3 months) | Solid form (HT-XRPD) after storage ([2]; 25° C./60% RH, 15 months) | Solid form (HT-XRPD) after storage ([2]; 25° C./60% RH, 24 months) | API chemical purity after storage ([3]; 25° C./60% RH, 24 months) | API chemical purity after storage ([3]; 40° C./75% RH, 24 months) | Form after AAC [4] | Mass loss attributed to water (TGA) after storage ([5]; 25° C./60% RH, 1 month) | Mass loss attributed to water (TGA) after storage ([5]; 40° C./75% RH, 1 month) | Mass loss attributed to water (TGA) after storage ([5]; 40° C./75% RH, 3 months) | Mass loss attributed to water (TGA) after storage ([5]; 40° C./75% RH, 15 months) | Mass loss attributed to water (TGA) after storage ([5]; 40° C./75% RH, 24 months) | Physical stability after exposure to AAC [4] | also measured
1 | CC1(C)[C@@H]2CC[C@@]1(CS(=O)(=O)O)C(=O)C2.CN1CCN(Cc2ccc(-c3cnc(N4CCOC(Cn5nnc6ncc(-c7cnn(C)c7)nc65)C4)nc3)cc2)CC1 (stereo in doubt) [Camp2] | 1.4% | Camp4 | slightly hygroscopic | 14.1% | 15.6% | 6.6% | irreversible | Camp2 | Camp2 | Camp2 | no solid form conversion; also recorded: Camp2 | 100 % (area %) | 88.6 % (area %) | Camp2 | 1.6% | 1.8% | 7.1% | 6.9% | 6.7% |  | Solid form (HT-XRPD) after storage ([2]; 40° C./75% RH, 1 month): Camp2; Solid form (HT-XRPD) after storage ([2]; 40° C./75% RH, 3 months): solid form conversion of Camp2 to Camp4; Solid form (HT-XRPD) after storage ([2]; 40° C./75% RH, 15 months): Camp4; Solid form (HT-XRPD) after storage ([2]; 40° C./75% RH, 24 months): a mixture of a camsylate salt and Form E of the free base; also recorded: Camp3+E; API chemical purity after storage ([3]; 25° C./60% RH, 1 month): 99.8 % (area %); API chemical purity after storage ([3]; 25° C./60% RH, 15 months): 99.5 % (area %) and 97.3 % (area %) and 100 % (area %); API chemical purity after storage ([3]; 40° C./75% RH, 1 month): 99.8 % (area %); API chemical purity after storage ([3]; 40° C./75% RH, 15 months): 93.7 % (area %) and 88.6 % (area %); Mass loss attributed to water (TGA) after storage ([5]; 25° C./60% RH, 24 months): 1.9%
2 | CN1CCN(Cc2ccc(-c3cnc(N4CCOC(Cn5nnc6ncc(-c7cnn(C)c7)nc65)C4)nc3)cc2)CC1 (centres unmarked) [ABN-401] |  |  |  |  |  |  |  |  |  |  |  | 87.2 % (area %) | 90.7 % (area %) |  | 3.7% | 4.0% | 4.4% | 3.7% | 5.2% |  | Mass loss attributed to water (TGA) after storage ([5]; 25° C./60% RH, 3 months): 4.1%; Mass loss attributed to water (TGA) after storage ([5]; 25° C./60% RH, 15 months): 3.3%; Mass loss attributed to water (TGA) after storage ([5]; 25° C./60% RH, 24 months): 5.3%; Area % ([6]; 1,2-dimethoxyethane, 1 h/50° C.): 98.6%; Area % ([6]; 1,2-dimethoxyethane, 1 h/80° C.): 97.7%; Area % ([6]; 1,2-dimethoxyethane, 1 h/RT): 99.0%; Area % ([6]; 1,2-dimethoxyethane, 24 h/RT): 98.8%; Area % ([6]; ACN, 1 h/50° C.): 99.0%; Area % ([6]; ACN, 1 h/80° C.): 98.7%; Area % ([6]; ACN, 1 h/RT): 99.0%; Area % ([6]; ACN, 24 h/RT): 98.1%; Area % ([6]; Acetone, 1 h/50° C.): 99.0%; Area % ([6]; Acetone, 1 h/80° C.): 99.0%; Area % ([6]; Acetone, 1 h/RT): 98.8%; Area % ([6]; Acetone, 24 h/RT): 98.5%; Chemical degradation in solution ([6]; samples kept at 50° C. and 80° C. for one hour, acetone, 1,2-dimethoxyethane, acetonitrile): No significant chemical degradation
3 | CC1(C)[C@@H]2CC[C@@]1(CS(=O)(=O)O)C(=O)C2.CN1CCN(Cc2ccc(-c3cnc(N4CCOC(Cn5nnc6ncc(-c7cnn(C)c7)nc65)C4)nc3)cc2)CC1 (centres unmarked) [Camp1] |  |  |  |  |  |  |  |  |  |  |  |  |  | Camp1 |  |  |  |  |  | physically stable | 
4 | CN1CCN(Cc2ccc(-c3cnc(N4CCOC(Cn5nnc6ncc(-c7cnn(C)c7)nc65)C4)nc3)cc2)CC1.CS(=O)(=O)O (centres unmarked) [Mes1] |  |  |  |  |  |  |  |  |  |  |  |  |  | Mes1 |  |  |  |  |  | physically stable | 
5 | CN1CCN(Cc2ccc(-c3cnc(N4CCOC(Cn5nnc6ncc(-c7cnn(C)c7)nc65)C4)nc3)cc2)CC1.CS(=O)(=O)O.CS(=O)(=O)O (centres unmarked) [Mes2] | approximately 12.2% | No change in the solid form | moderately hygroscopic | 24.8% | 29.6% | 4.6% | reversible | Mes2 | no significant differences in the powder patterns and Mes2 | additional diffraction peaks were detected at 15.1 and 16.5° 2θ; also recorded: Mes2+peaks | Mes6 | 99.6 % (area %) | 100 % (area %) | Mes2 | 8.0% | 10.8% | 11.2% | 9.6% | ~12.0% | physically stable | Solid form (HT-XRPD) after storage ([2]; 40° C./75% RH, 1 month): Mes2; Solid form (HT-XRPD) after storage ([2]; 40° C./75% RH, 3 months): showed these additional peaks; also recorded: Mes2+peaks; Solid form (HT-XRPD) after storage ([2]; 40° C./75% RH, 15 months): Mes4 and Mes4+peaks; Solid form (HT-XRPD) after storage ([2]; 40° C./75% RH, 24 months): Mes6; API chemical purity after storage ([3]; 25° C./60% RH, 1 month): 100 % (area %) and 99.7 % (area %); API chemical purity after storage ([3]; 25° C./60% RH, 3 months): 99.6 % (area %); API chemical purity after storage ([3]; 25° C./60% RH, 15 months): 100 % (area %); API chemical purity after storage ([3]; 40° C./75% RH, 1 month): 99.7 % (area %) and 97.2 % (area %); API chemical purity after storage ([3]; 40° C./75% RH, 3 months): 99.5 % (area %); API chemical purity after storage ([3]; 40° C./75% RH, 15 months): 100 % (area %); Mass loss attributed to water (TGA) after storage ([5]; 25° C./60% RH, 3 months): 7.7%; Mass loss attributed to water (TGA) after storage ([5]; 25° C./60% RH, 15 months): 6.5%
6 | CN1CCN(Cc2ccc(-c3cnc(N4CCOC(Cn5nnc6ncc(-c7cnn(C)c7)nc65)C4)nc3)cc2)CC1.CS(=O)(=O)O.CS(=O)(=O)O.CS(=O)(=O)O (centres unmarked) [Mes3] |  |  |  |  |  |  |  |  |  |  |  |  |  | Mes3 (deliquescent) |  |  |  |  |  | became deliquescent | 
